In article PMC7732531 (Frontiers in Pharmacology, 2020):
Read-outs that look alike come from different tables or passages of the source.

Assays:
[1] = rat, microsomes, 0 h, 1 μM, pH 7.4
[2] = Blood/plasma partitional ratio, rat blood; type: in vitro ADME; conditions: fresh pooled whole blood with heparin, rat whole blood, 37°C, read-out: blood/plasma partitioning (R b/P)
Description: The blood/plasma partitional ratio (R b/p) in rat and human blood was measured in vitro using fresh pooled blood including heparin. Whole blood was preincubated at 37°C in a water bath, and spiked with YL-IPA08 at 1 µM. The blood samples were incubated at 37°C for 1 h. After incubation, aliquots of 25 µl spiked whole blood were removed, and the remaining blood was centrifuged at 2,000 × g for 10 min, after which 25 µl aliquots of plasma were removed. Obtained blood and plasma samples were spiked with same volume of blank plasma or blood, respectively, and then immediately precipitated by adding 4× volumes of acetonitrile containing IS to get the same matrix. The concentrations of YL-IPA08 in blood and plasma were determined by LC-MS/MS.

[3] = Prediction of therapeutic human plasma concentration from Kp,uu; conditions: C b,u,human set to 4.9 pg/ml, rat K p,uu, human unbound fraction
Description: K p,uu in the current investigation is critical to link the PD of in vitro and in vivo results (see the result part). What is more important is that K p,uu is often preserved across species ([Di et al., 2013]). Human K p,uu can be estimated using that of rat ( Kp,uu,human≈Kp,uu,rat ). Thus, unbound drug concentration in human brain can be calculated by using the rat K p,uu, rat times the human unbound plasma concentration [ Cb,u,human≈Kp,uu,rat ×Cp,u,human ]. At the current stage, if C b,u,human (4.9 pg/ml) was set as the in vitro TPSO-binding activity concentration for the onset efficacy, therapeutic human plasma concentration would be around 27.2 ng/ml according to the calculation.

[4] = in vitro; conditions: rat, microsomes, pH 7.4
[5] = Bioavailability study in rats (i.v. and p.o.); type: in vivo; conditions: male, rat, plasma; for MRT last: read-out: MRT(0–t)
Description: Male SD rats (200-240 g) were obtained from Beijing Vital River Laboratory Animal Technology Co., Ltd. Animals were housed in a temperature- and humidity-controlled room with a 12 h light/dark cycle. They were fasted 12 h before the experiments and had ad libitum access to water. The animal experiments were conducted in the Beijing Center for Drug Safety Evaluation and according to a protocol (IACUC-DWZX-2020-691) approved by the Institutional Animal Care and Use Committee of the Center, which followed the guidelines of the Association for Assessment and Accreditation of Laboratory Animal Care International (AAALAC). […] Pharmacokinetic parameters were calculated by the noncompartmental method using WinNonlin 7.0 (Pharsight, CA). The area under the plasma concentration time curve (AUC) from time 0 to the last time point with a measurable concentration (AUC0-t) was calculated by trapezoidal method. Bioavailability (%F) was calculated as the ratio of the mean dose-normalized AUC values for oral and intravenous dosed groups [Fp.o. = […].)]. In vivo plasma clearance and volume of distribution were archived from the pharmacokinetic study via i.v. injection.

[6] = Brain distribution under steady state (Kp,uu); type: in vivo, rat

CCN(Cc1ccccn1)C(=O)Cc1c(-c2ccc(Cl)c(Cl)c2)nc2cc(C)ccn12 [YL-IPA08]
percent of remaining [1]: 100.00%
blood plasma ratio at 1 h, 1 µM [2]: 1.12 ± 0.08
predicted therapeutic human plasma concentration [3]: ~27.2 ng/mL
microsomal CLint at 1 μM [4]: 53 ± 20 µL/min/mg
AUC(0-inf) ([5]; SD, iv, i.v. 0.3 mg/kg): 71.3 ± 12.3 ng·h/mL
AUC(0-t) ([5]; SD, iv, i.v. 0.3 mg/kg): 70.6 ± 12.2 ng·h/mL
clearance ([5]; SD, iv, i.v. 0.3 mg/kg): 71.7 ± 11.5 mL/min/kg
half-life ([5]; SD, iv, i.v. 0.3 mg/kg): 1.13 ± 0.07 h
concentration at 0.033 h ([5]; SD, iv, i.v. 0.3 mg/kg, 0.033 h): 220 ± 32.5 ng/mL
concentration at 0.083 h ([5]; SD, iv, i.v. 0.3 mg/kg): 140 ± 36.2 ng/mL
concentration at 0.25 h ([5]; SD, iv, i.v. 0.3 mg/kg): 38.9 ± 5.41 ng/mL
concentration at 0.5 h ([5]; SD, iv, i.v. 0.3 mg/kg): 18.2 ± 1.29 ng/mL
concentration at 1 h ([5]; SD, iv, i.v. 0.3 mg/kg): 8.44 ± 1.06 ng/mL
concentration at 2 h ([5]; SD, iv, i.v. 0.3 mg/kg): 4.3 ± 0.57 ng/mL
concentration at 4 h ([5]; SD, iv, i.v. 0.3 mg/kg): 1.84 ± 0.39 ng/mL
concentration at 6 h ([5]; SD, iv, i.v. 0.3 mg/kg): 1.09 ± 0.22 ng/mL
concentration at 8 h ([5]; SD, iv, i.v. 0.3 mg/kg): 0.81 ± 0.08 ng/mL
concentration at 12 h ([5]; SD, iv, i.v. 0.3 mg/kg): 0.48 ± 0.06 ng/mL
MRT last ([5]; SD, iv, i.v. 0.3 mg/kg): 1.36 ± 0.11 h
Vd ([5]; SD, iv, i.v. 0.3 mg/kg, read-out: Vz): 6.98 ± 0.74 L/kg
AUC(0-inf) ([5]; SD, po, p.o. 1 mg/kg): 13.6 ± 4.37 ng·h/mL
AUC(0-t) ([5]; SD, po, p.o. 1 mg/kg): 12.5 ± 3.88 ng·h/mL
Cmax ([5]; SD, po, p.o. 1 mg/kg): 5.99 ± 1.36 ng/mL
Tmax ([5]; SD, po, p.o. 1 mg/kg): 3 ± 1.8 min
half-life ([5]; SD, po, p.o. 1 mg/kg): 1.66 ± 0.68 h
concentration at 0.083 h ([5]; SD, po, p.o. 1 mg/kg): 5.43 ± 1.96 ng/mL
concentration at 0.25 h ([5]; SD, po, p.o. 1 mg/kg): 5.22 ± 0.65 ng/mL
concentration at 0.5 h ([5]; SD, po, p.o. 1 mg/kg): 3.71 ± 0.79 ng/mL
concentration at 1 h ([5]; SD, po, p.o. 1 mg/kg): 3 ± 0.8 ng/mL
concentration at 2 h ([5]; SD, po, p.o. 1 mg/kg): 1.65 ± 0.44 ng/mL
concentration at 4 h ([5]; SD, po, p.o. 1 mg/kg): 1.02 ± 0.55 ng/mL
concentration at 6 h ([5]; SD, po, p.o. 1 mg/kg): 0.63 ± 0.31 ng/mL
concentration at 8 h ([5]; SD, po, p.o. 1 mg/kg): 0.63 ± 0.25 ng/mL
concentration at 12 h ([5]; SD, po, p.o. 1 mg/kg): 0.56 ± 0.27 ng/mL
MRT last ([5]; SD, po, p.o. 1 mg/kg): 3.35 ± 1.27 h
AUC(0-inf) ([5]; SD, po, p.o. 3 mg/kg): 39.9 ± 9.81 ng·h/mL
AUC(0-t) ([5]; SD, po, p.o. 3 mg/kg): 36.9 ± 9.57 ng·h/mL
Cmax ([5]; SD, po, p.o. 3 mg/kg): 19.2 ± 16.4 ng/mL
Tmax ([5]; SD, po, p.o. 3 mg/kg): 9 ± 10.2 min
half-life ([5]; SD, po, p.o. 3 mg/kg): 2.47 ± 1.54 h
concentration at 0.083 h ([5]; SD, po, p.o. 3 mg/kg): 18.9 ± 16.6 ng/mL
concentration at 0.25 h ([5]; SD, po, p.o. 3 mg/kg): 9.25 ± 4.57 ng/mL
concentration at 0.5 h ([5]; SD, po, p.o. 3 mg/kg): 7.42 ± 3.58 ng/mL
concentration at 1 h ([5]; SD, po, p.o. 3 mg/kg): 6.3 ± 3.02 ng/mL
concentration at 2 h ([5]; SD, po, p.o. 3 mg/kg): 4.07 ± 0.73 ng/mL
concentration at 4 h ([5]; SD, po, p.o. 3 mg/kg): 3.5 ± 0.73 ng/mL
concentration at 6 h ([5]; SD, po, p.o. 3 mg/kg): 2.35 ± 0.96 ng/mL
concentration at 8 h ([5]; SD, po, p.o. 3 mg/kg): 1.95 ± 0.51 ng/mL
concentration at 12 h ([5]; SD, po, p.o. 3 mg/kg): 0.84 ± 0.26 ng/mL
MRT last ([5]; SD, po, p.o. 3 mg/kg): 4.61 ± 1.49 h
AUC(0-inf) ([5]; SD, po, p.o. 10 mg/kg): 107 ± 30.2 ng·h/mL
AUC(0-t) ([5]; SD, po, p.o. 10 mg/kg): 104 ± 29.4 ng·h/mL
Cmax ([5]; SD, po, p.o. 10 mg/kg): 60.9 ± 44.9 ng/mL
Tmax ([5]; SD, po, p.o. 10 mg/kg): 9 ± 10.2 min
half-life ([5]; SD, po, p.o. 10 mg/kg): 2.31 ± 1.32 h
concentration at 0.083 h ([5]; SD, po, p.o. 10 mg/kg): 60.7 ± 45.1 ng/mL
concentration at 0.25 h ([5]; SD, po, p.o. 10 mg/kg): 20.5 ± 8.3 ng/mL
concentration at 0.5 h ([5]; SD, po, p.o. 10 mg/kg): 15.9 ± 4.1 ng/mL
concentration at 1 h ([5]; SD, po, p.o. 10 mg/kg): 10.2 ± 3.5 ng/mL
concentration at 2 h ([5]; SD, po, p.o. 10 mg/kg): 7.1 ± 2.7 ng/mL
concentration at 4 h ([5]; SD, po, p.o. 10 mg/kg): 5.63 ± 2.23 ng/mL
concentration at 6 h ([5]; SD, po, p.o. 10 mg/kg): 4.39 ± 2.71 ng/mL
concentration at 8 h ([5]; SD, po, p.o. 10 mg/kg): 3.61 ± 2.13 ng/mL
concentration at 12 h ([5]; SD, po, p.o. 10 mg/kg): 3.18 ± 1.43 ng/mL
concentration at 24 h ([5]; SD, po, p.o. 10 mg/kg, 24 h): 1.04 ± 0.66 ng/mL
MRT last ([5]; SD, po, p.o. 10 mg/kg): 7.73 ± 2.79 h
bioavailability ([5]; SD, po, printed in the p.o. 3 mg/kg column, read-out: F): 5.59%
bioavailability ([5]; Sprague-Dawley (SD), oral administration (1–10 mg/kg), read-out: bioavailability): ~6%
unbound concentration in rat brain ([6]; estimated based on K p,uu): 0.0065 ng/mL
unbound concentration in brain ([6]; rats, after 1 mg/kg oral dosing, estimated from plasma concentrations and K p,uu): 6.5 pg/g
